Results from ChEMBL document CHEMBL3217704, “Combination of biotransformation by P450 BM3 mutants with on-line post-column bioaffinity and mass spectrometric profiling as a novel strategy to diversify and characterize p38 kinase inhibitors” (Medchemcomm, 2013).

Biological target: Mitogen-activated protein kinase 14 (Homo sapiens, UniProt Q16539)
Assay: Displacement of SKF86002 from recombinant human p38alpha by fluorescence-based assay; call rule not given here

Mitogen-activated protein kinase 14, sequence (Q16539 whole entry): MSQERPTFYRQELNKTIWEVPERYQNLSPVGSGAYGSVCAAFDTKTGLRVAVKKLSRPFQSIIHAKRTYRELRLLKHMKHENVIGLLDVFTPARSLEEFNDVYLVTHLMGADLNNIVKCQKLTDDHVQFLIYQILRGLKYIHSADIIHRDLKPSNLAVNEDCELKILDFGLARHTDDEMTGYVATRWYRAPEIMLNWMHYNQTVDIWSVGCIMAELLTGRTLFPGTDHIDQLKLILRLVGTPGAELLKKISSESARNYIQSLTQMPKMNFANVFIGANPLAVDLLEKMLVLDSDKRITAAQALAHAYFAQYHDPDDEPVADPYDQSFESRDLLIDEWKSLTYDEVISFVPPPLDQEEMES

SMILES	IC50 (read-out: IC50) [nM]	IC50
CCc1nc(-c2cccc(C(=O)O)c2)c(-c2ccnc(NC(=O)c3ccccc3)c2)s1	1500	–
CC(O)c1nc(-c2cccc(C(=O)O)c2)c(-c2ccnc(NC(=O)c3ccccc3)c2)s1 (stereo not given)	–	Not Active

Further lines, with some results ahead:

IC50 (read-out: IC50) [nM]	SMILES	IC50
38	Cc1cccc(-c2nc(C(C)O)sc2-c2ccnc(NC(=O)c3ccccc3)c2)c1 (stereo not given)	–
310	CCc1nc(-c2cccc(CO)c2)c(-c2ccnc(NC(=O)c3ccccc3)c2)s1	–
460	CC(O)c1nc(-c2cccc(CO)c2)c(-c2ccnc(NC(=O)c3ccccc3)c2)s1 (stereo not given)	–
